What was measured:
Test in all cases: relative viability (nuclei count vs DMSO), 5 days (fraction); higher = more cells survive
[1] = compound: Cc1nc(Nc2ncc(C(=O)Nc3c(C)cccc3Cl)s2)cc(N2CCN(CCO)CC2)n1 [Dasatinib] + Cc1nc(NC(=O)N2CCC[C@H]2C(N)=O)sc1-c1ccnc(C(C)(C)C(F)(F)F)c1 [Alpelisib] (partner 2 µM)
Method in brief: (§1)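 A single step with final 0.05% Triton X-100, 1% formaldehyde and 1 ug/ml Hoechst fixed the cells and stained nuclei 5 days after treatment. Lung cancer cell lines in 1536-well plates had been treated by pin tool the day after seeding with one drug alone or a fixed anchor-drug dose plus five library-drug doses (not always all listed) in √10 steps, and nuclei were counted on 4× images. Relative viability is the ratio of nuclei in treated wells to nuclei in vehicle wells, taken as the median of duplicate plates.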

[2] = compound: Cc1ccc(C(=O)Nc2cccc(C(F)(F)F)c2)cc1Nc1cncc(C(N)=O)c1 [ALW-II-49-7] + CS(=O)(=O)CCNCc1ccc(-c2ccc3ncnc(Nc4ccc(OCc5cccc(F)c5)c(Cl)c4)c3c2)o1 [Lapatinib] (partner 2 µM)
Method in brief: as §1

[3] = compound: Cc1nc(Nc2ncc(C(=O)Nc3c(C)cccc3Cl)s2)cc(N2CCN(CCO)CC2)n1 [Dasatinib] + CS(=O)(=O)CCNCc1ccc(-c2ccc3ncnc(Nc4ccc(OCc5cccc(F)c5)c(Cl)c4)c3c2)o1 [Lapatinib] (partner 2 µM)
Method in brief: as §1

[4] = compound: Cc1ccc(C(=O)Nc2cccc(C(F)(F)F)c2)cc1Nc1cncc(C(N)=O)c1 [ALW-II-49-7] + CC(=O)Nc1cccc(-n2c(=O)n(C3CC3)c(=O)c3c(Nc4ccc(I)cc4F)n(C)c(=O)c(C)c32)c1 [Trametinib] (partner 0.02 µM)
Method in brief: as §1

UMC-11
relative viability ([1]; first compound 0.005 µM): 0.988 | relative viability ([1]; first compound 0.01581 µM): 0.768 | relative viability ([1]; first compound 0.05 µM): 0.752 | relative viability ([1]; first compound 0.1581 µM): 0.347 | relative viability ([1]; first compound 0.5 µM): 0.264 | relative viability ([2]; first compound 0.08 µM): 0.943 | relative viability ([2]; first compound 0.253 µM): 1.08 | relative viability ([2]; first compound 0.8 µM): 0.998 | relative viability ([2]; first compound 2.53 µM): 1.04 | relative viability ([2]; first compound 8 µM): 0.806 | relative viability ([3]; first compound 0.005 µM): 0.877 | relative viability ([3]; first compound 0.01581 µM): 0.702 | relative viability ([3]; first compound 0.05 µM): 0.835 | relative viability ([3]; first compound 0.1581 µM): 0.333 | relative viability ([3]; first compound 0.5 µM): 0.377 | relative viability ([4]; first compound 0.08 µM): 0.791 | relative viability ([4]; first compound 0.253 µM): 0.69 | relative viability ([4]; first compound 0.8 µM): 0.896 | relative viability ([4]; first compound 2.53 µM): 0.821 | relative viability ([4]; first compound 8 µM): 0.599

Reference: the supplement of paper PMC10307832
